Source: patent publication US11738031B2, “Compositions and methods for preventing or treating muscle conditions” (The Board of Trustees of the Leland Stanford Junior …, priority 2017, dated 2023)

Columns and labels:
[1] = PGE2 20 μg (or 4 mg/kg); cited from earlier work
[2] = tested on: aged MuSCs; assay: Clonal aged MuSC proliferation and fate by time-lapse microscopy (48 h); assay type: cell-based, mouse
From the text: Clonal muscle stem cell proliferation and fate analyses: We assayed clonal muscle stem cell proliferation by time-lapse microscopy as previously described^56. Briefly, we treated isolated aged MuSCs with PGE2 (Cayman Chemical) or vehicle (DMSO) for 24 hr. After five days of growth on hydrogels, cells were reseeded at a density of 500 cells per cm^2 surface area in hydrogel microwells with 600 μm diameter. For time-lapse microscopy we monitored cell proliferation for those wells with single cells beginning 12 hr (day 0) to two days after seeding and recorded images every 3 min at 10× magnification using a PALM/AxioObserver Z1 system (Carl Zeiss MicroImaging) with a custom environmental control chamber and motorized stage. We changed medium every other day in between the acquisition time intervals. We analyzed time-lapse image sequences using the Baxter Algorithms for Cell Tracking and Lineage Reconstruction to identify and track single cells and generate lineage trees^5,6,8-10.
Viable and dead cells were distinguished in time-lapse sequences based on phase-contrast boundary and motility maintenance or loss, respectively. […] The values were estimated using the equations described in^6, and found in Table 1. We denote the proliferation rates in the two intervals p24 and p48 and the corresponding death rates d24 and d48. […] The modeled cell counts in the two time intervals are given by […]

[3] = aged MuSC clones, acute PGE2 treatment, time-lapse 48 h
[4] = first 24 hour interval, aged MuSCs
[5] = second 24 hour interval, aged MuSCs
[6] = transient 1 day PGE2, 48 h tracking

SMILES: CCCCC[C@H](O)/C=C/[C@H]1[C@H](O)CC(=O)[C@@H]1C/C=C\CCCC(=O)O [PGE2, prostaglandin E2]
- tolerability of proposed maximum dose in rodents [1]: without deleterious effects
- percent increase in dead cell count [2, 3]: 0.1%
- percent increase in live cell count [2, 3]: 5.4%
- d24, estimated death rate [2, 4]: 0.0067 per hours
- p24, estimated proliferation rate [2, 4]: 0.0475 per hours
- d48, estimated death rate [2, 5]: 0.0012 per hours
- p48, estimated proliferation rate [2, 5]: 0.0538 per hours
- cell death in aged MuSC clones [2, 6]: profound reduction in cell death
- proliferation of aged MuSC clones [2, 6]: marked increase in proliferation
- cumulative cell numbers of aged MuSC clones ([2]; transient 1 day PGE2, 48 h tracking, spanning 6 generations): remarkable increase in cumulative cell numbers
